# From paper PMC12259270, “Sensory neuron–expressed FGF13 controls nociceptive signaling in diabetic neuropathy models” (The Journal of Clinical Investigation, 2025)
# Residues, ends and D or L forms follow the SMILES beside them. *: point of attachment. Cbz = O=C(OCc1ccccc1)*; OtBu = CC(C)(C)O*
# How the values were obtained:
# [1] = test system: Na+ currents in hIPSC-derived sensory neurons (RealDRG); test: Whole-cell voltage clamp, hIPSC-derived sensory neurons (RealDRG) with Nav1.7 blocker ProTx-II; assay type: cell-based, human
# Protocol: Next, we conducted whole-cell patch-clamp electrophysiological recordings in hIPSC-derived sensory neurons under three conditions: unstimulated and treated with 0.07% ethanol (capsaicin vehicle), treated with capsaicin (100 nM, 10 minutes), and treated with capsaicin plus SB-366791 (10 μM), a selective TRPV1 inhibitor. Each group was exposed to either vehicle (0.01% DMSO) or PW164 (50 μM), with all recordings performed in the presence of the Nav1.8 blocker A-803467 (300 nM) ([41]). The experimental groups are color coded in Figure 2A. Capsaicin caused potentiation of INa (Figure 2A) and induced hyperpolarizing shifts in the V1/2 of activation (Figure 2B) and SSI (Figure 2C). […] Next, we investigated whether silencing FGF13 could replicate PW164’s effects and prevent additional activity of the compound. hIPSC-derived sensory neurons were transfected with a previously validated pAAV-shFGF13-GFP construct ([42]) (Supplemental Figure 8). […] Neither PW164 nor FGF13 silencing affected Na+ currents in neurons transfected with pAAV-shCTRL-GFP or pAAV-shFGF13-GFP, whether unstimulated or treated with capsaicin in the presence of ProTx II (Supplemental Figure 9 and Supplemental Table 6). Thus, PW164 selectively modulated FGF13-dependent Na^+ current sensitization via TRPV1, with FGF13 silencing mimicking and validating PW164’s effect. […]
# Whole-cell patch clamp electrophysiology
# HEK293-Nav1.7 cells, HEK293 stably expressing human Nav1.6 (HEK-Nav1.6), HEK293 stably expressing human Nav1.5 (HEK-Nav1.5), human hIPSC-derived sensory neurons (RealDRGTM from Anatomic Incorporated 1020F1-1M) and donor-derived DRG neurons were plated at low density on glass coverslips and processed for whole-cell patch clamp electrophysiology in voltage-clamp and/or current clamp mode. Whole-cell patch electrophysiological experiments were conducted following previously published studies (26). Current densities were obtained by dividing INa amplitude by membrane capacitance. Current –voltage relationships were generated by plotting current density as a function of the […]. Conductance (G Na) was calculated by the […]
# where INa is the current amplitude at voltage Vm, and Erev is the Na+ reversal potential.
# Activation curves were derived by plotting normalized GNa as a function of test potential and fitted using […]
# Where GNa,Max is the maximum conductance, Va is the membrane potential of half-maximal activation, Em is the membrane voltage and k is the slope factor. For steady -state inactivation, normalized current amplitude (INa/INa,Max) at the test potential was plotted as a function of prepulse potential (Vm) and fitted using the […]
# Where Vh is the potential of half-maximal inactivation, E m is the membrane voltage, and k is the slope factor.
# Transient INa inactivation decay was estimated with the standard exponential equation. Inactivation time constant (tau, τ) was fitted with the following equation: […]
# where I(t) is the amplitude of the current at time t and Iss is the steady-state current during a single voltage-step.
# The goodness of fitting was determined by correlation coefficient (R), and the cutoff of R was set at 0.85. To observe effects on long-term inactivation (LTI), a four-step protocol was employed during which cells were subjected to four 0 mV, 20 ms depolarization pulses separated by −90 mV, 40 ms recovery intervals. To control for various cell sizes, the current densities were calculated by dividing INa peak current amplitude/membrane capacitance (Cm). To represent the fraction of channels entering into LTI, the peak INa observed during depolarization cycles 2-4 was normalized to the peak INa observed during depolarization cycle 1 (INa/INa,Cycle 1) and plotted as a function of the depolarization cycle.
# The cumulative (frequency-dependent) use-dependency was determined by applying 20 pulses with a depolarization to −10 mV (50 ms duration) and 50 ms recovery intervals with a train of 20 pulses at 10 Hz from a holding potential at -70 mV. […]
# [2] = test system: C57BL/6 mice; test: Mechanical sensitivity (von Frey, LVF/HVF) after intraplantar injection, mice without capsaicin; assay type: in vivo, mouse; set-up: key to LVF Mean / HVF Mean: % withdrawals from 10 consecutive von Frey stimulations; settings: for HVF Mean / LVF Mean: without capsaicin
# Protocol: Experiments were performed on 6- to 12-week-old male C57BL/6 mice (The Jackson Laboratory, Bar Harbor, ME) housed in the AAALAC-accredited facility at the University of Texas Medical Branch. Mice were group-housed with up to 5 mice per cage on a 12-to-12-hour light–dark cycle and had access to water and food ad libitum. All protocols were approved by the Institutional Animal Care and Use Committee (IACUC) at the University of Texas Medical Branch and in accordance with the National Institutes of Health (NIH) guidelines.
# PW164 and ZL192 were dissolved in DMSO and saline in a ratio of 1:10. 0.1% capsaicin (10% ethanol, 10% Tween-20 in saline; Sigma-Aldrich). All the compounds were injected at the center of the hind paw. The control group received a DMSO-saline mixture. […]
# Assessment of mechanical sensitivity
# Mechanical sensitivity was assessed using von Frey filaments (VFF 0.1g and 1.0 g force) in mice that were either naïve or received intraplantar (i.p.) injection of capsaicin. VFFs were applied at the injection site (capsaicin or drug unilateral intraderma l injection at the center of the hind paw using a 30 -G needle). VFF of 1.0 g force, which evokes a 40–60% withdrawal response in the naïve condition, was used to detect hyperalgesia, and VFF of 0.1 g […]
# mechanical sensitivity was expressed as % withdrawals from 10 consecutive stimulations. […]
# [3] = RealDRG, + Nav1.7 blocker ProTx-II, Cap+ - PW164
# [4] = RealDRG, + Nav1.7 blocker ProTx-II, Cap+ PW164
# [5] = RealDRG, + Nav1.7 blocker ProTx-II, Naïve + PW164
# [6] = RealDRG, + Nav1.7 blocker ProTx-II, Naïve - PW164
smiles,measurement,setting,value
COC(=O)[C@@H](NC(=O)[C@H](CCC(=O)OC(C)(C)C)NC(=O)[C@H](CC(C)C)NC(=O)[C@@H]1CCCN1C(=O)OCc1ccccc1)C(C)C [PW164] (Cbz-PLE(OtBu)V-OMe),effect on capsaicin-potentiated Na+ currents with ProTx-II,"[1]; ProTx-II 10 nM, Suppl Fig 7",does not have any effect
same,Activation,[1]; [3],−29.15 ± 0.86 mV
same,Peak Density,[1]; [3],−80.16 ± 8.05 pA/pF
same,Steady-State inactivation,[1]; [3],−61.95 ± 1.29 mV
same,Tau (τ),[1]; [3],0.98 ± 0.08 ms
same,"Long-term inactivation, 2nd Pulse",[1]; [4],−118.43 ± 3.81 % maximal Na+ current
same,"Long-term inactivation, 3rd Pulse",[1]; [4],−120.42 ± 4.69 % maximal Na+ current
same,"Long-term inactivation, 2nd Pulse",[1]; [5],−105.72 ± 2.72 % maximal Na+ current
same,"Long-term inactivation, 3rd Pulse",[1]; [5],−110.76 ± 2.72 % maximal Na+ current
same,"Long-term inactivation, 4th Pulse",[1]; [5],−113.94 ± 3.54 % maximal Na+ current
same,Activation,[1]; [6],−29.68 ± 1.17 mV
same,Peak Density,[1]; [6],−76.99 ± 6.01 pA/pF
same,Steady-State inactivation,[1]; [6],−61.23 ± 1.29 mV
same,Tau (τ),[1]; [6],0.87 ± 0.04 ms
same,HVF Mean,"[2]; PW164 0.07mg/mL, Time (h) 0",50
same,LVF Mean,"[2]; PW164 0.07mg/mL, Time (h) 0",0
same,HVF Mean,"[2]; PW164 0.07mg/mL, Time (h) 0.5",50
same,LVF Mean,"[2]; PW164 0.07mg/mL, Time (h) 0.5",0
same,HVF Mean,"[2]; PW164 0.07mg/mL, Time (h) 1",55
same,LVF Mean,"[2]; PW164 0.07mg/mL, Time (h) 1",0
same,HVF Mean,"[2]; PW164 0.07mg/mL, Time (h) 1.5",50
same,LVF Mean,"[2]; PW164 0.07mg/mL, Time (h) 1.5",0
same,HVF Mean,"[2]; PW164 0.07mg/mL, Time (h) 2",50
same,LVF Mean,"[2]; PW164 0.07mg/mL, Time (h) 2",0
same,HVF Mean,"[2]; PW164 0.21 mg/mL, Time (h) 0",53.3333
same,LVF Mean,"[2]; PW164 0.21 mg/mL, Time (h) 0",0
same,HVF Mean,"[2]; PW164 0.21 mg/mL, Time (h) 0.5",50
same,LVF Mean,"[2]; PW164 0.21 mg/mL, Time (h) 0.5",0
same,HVF Mean,"[2]; PW164 0.21 mg/mL, Time (h) 1",50
same,LVF Mean,"[2]; PW164 0.21 mg/mL, Time (h) 1",0
same,HVF Mean,"[2]; PW164 0.21 mg/mL, Time (h) 1.5",53.3333
same,LVF Mean,"[2]; PW164 0.21 mg/mL, Time (h) 1.5",0
same,HVF Mean,"[2]; PW164 0.21 mg/mL, Time (h) 2",50
same,LVF Mean,"[2]; PW164 0.21 mg/mL, Time (h) 2",3.333
same,HVF Mean,"[2]; PW164 0.7 mg/mL, Time (h) 0",53.3333
same,LVF Mean,"[2]; PW164 0.7 mg/mL, Time (h) 0",0
same,HVF Mean,"[2]; PW164 0.7 mg/mL, Time (h) 0.5",50
same,LVF Mean,"[2]; PW164 0.7 mg/mL, Time (h) 0.5",0
same,HVF Mean,"[2]; PW164 0.7 mg/mL, Time (h) 1",56.6667
same,LVF Mean,"[2]; PW164 0.7 mg/mL, Time (h) 1",0
same,HVF Mean,"[2]; PW164 0.7 mg/mL, Time (h) 1.5",53.3333
same,LVF Mean,"[2]; PW164 0.7 mg/mL, Time (h) 1.5",3.333
same,HVF Mean,"[2]; PW164 0.7 mg/mL, Time (h) 2",56.6667
same,LVF Mean,"[2]; PW164 0.7 mg/mL, Time (h) 2",0
same,"paw withdrawal to LVF/HVF stimulation, normal sensitivity","[2]; WT mice, i.pl. 5 μL, doses tested",did not affect paw withdrawal
